Measurements taken from article PMC11372264, “^61Cu-PSMA–Targeted PET for Prostate Cancer: From Radiotracer Development to First-in-Human Imaging” (Journal of Nuclear Medicine, 2024).

Key:
LNCaP xenografts = test: Biodistribution in LNCaP xenografts; format: in vivo, mice
Description: All animal experiments were conducted in accordance with Swiss animal welfare laws and regulations under license number 30515 granted by the Veterinary Office, Department of Health, Canton Basel-Stadt, Switzerland. Male athymic nude-Foxn1^nu/Foxn1^+ mice (Envigo), 4–6 wk old, were inoculated subcutaneously on the shoulder with 10^7 LNCaP cells, freshly suspended in a 1:1 ratio of sterile minimum essential medium with basal medium Eagle and Matrigel. The tumors were allowed to grow to a volume of approximately 200 mm^3.
The biodistribution of [^61Cu]Cu-DOTAGA-PSMA-I&T and [^61Cu]Cu-NODAGA-PSMA-I&T (100 µL/200 pmol/2–3 MBq) was compared with that of [^68Ga]Ga-DOTAGA-PSMA-I&T, [^68Ga]Ga-NODAGA-PSMA-I&T, and [^68Ga]Ga-PSMA-11 (100 µL/200 pmol/3–5 MBq), as well as [^18F]PSMA-1007 (100 µL/70 pmol/15 MBq). This comparison was conducted at 1 h after injection for all radiotracers and at 4 h after injection for the ^61Cu-labeled tracers and [^18F]PSMA-1007. The specificity of the ^61Cu-labeled tracers was assessed at 1 h after injection by blocking studies with 2-(phosphonomethyl)pentanedioic acid (100 µL/1.3 µmol) being injected 3–5 min before the injection of the radiotracer.

[1] = Lipophilicity: distribution coefficient in 1:1 1-octanol/phosphate-buffered saline at pH 7.4; format: physicochemical
Description: (§1) The lipophilicity of [^61Cu]Cu-DOTAGA-PSMA-I&T and [^61Cu]Cu-NODAGA-PSMA-I&T was assessed by determining the distribution coefficient in a 1:1 mixture of 1-octanol–to–phosphate-buffered saline at pH 7.4, in comparison with all reference radiotracers. Inhibitory concentration of 50% (IC50) was assessed by competition binding on lymph node carcinoma of the prostate (LNCaP) using ((S)-1-carboxy-5-(4-(-^125I-iodo-benzamido)pentyl)carbamoyl)-L-glutamic acid as the reference radioligand. Cellular uptake and distribution were assessed in LNCaP cells at 5, 15, 30, 60, and 120 min after exposure to the radioligand at 37°C, either alone or in the presence of 10 µM 2-(phosphonomethyl)pentanedioic acid to distinguish between specific and nonspecific uptake.

LNCaP cells = test: Cellular uptake and distribution (surface-bound, internalized) in LNCaP cells; format: cell-based; settings: 1 h, 37°C, specific uptake
Description: as §1
(§2) FIGURE 1. In vitro assessment in LNCaP cells after 1 h at 37°C. (A) Competition binding activity curves of ^natCu-DOTAGA-PSMA-I&T, ^natCu-NODAGA-PSMA-I&T, and ^natGa-PSMA-11 on LNCaP cells after 1 h of incubation on ice, using ((S)-1-carboxy-5-(4-(-^125I-iodo-benzamido)pentyl)carbamoyl)-L-glutamic acid ([^125I-BA]KuE) at concentration of 0.2 nM as reference radioligand. (B) Cellular uptake (surface-bound + internalized). Cell surface–bound and internalized fractions are indicated. Results represent mean ± SD of specific (total − nonspecific) uptake from minimum of 2 separate experiments, each in triplicate.

PSMA = biological target: T1, PSMA (Homo sapiens, UniProt Q04609); test: Competition binding on LNCaP cells using [^125I-BA]KuE as reference radioligand; settings: [^125I-BA]KuE 0.2 nM, 1 h on ice, determined with natCu/natGa complexes
T1 construct: endogenous in cells; host or cells: LNCaP cells
T1 sequence (Q04609 whole entry): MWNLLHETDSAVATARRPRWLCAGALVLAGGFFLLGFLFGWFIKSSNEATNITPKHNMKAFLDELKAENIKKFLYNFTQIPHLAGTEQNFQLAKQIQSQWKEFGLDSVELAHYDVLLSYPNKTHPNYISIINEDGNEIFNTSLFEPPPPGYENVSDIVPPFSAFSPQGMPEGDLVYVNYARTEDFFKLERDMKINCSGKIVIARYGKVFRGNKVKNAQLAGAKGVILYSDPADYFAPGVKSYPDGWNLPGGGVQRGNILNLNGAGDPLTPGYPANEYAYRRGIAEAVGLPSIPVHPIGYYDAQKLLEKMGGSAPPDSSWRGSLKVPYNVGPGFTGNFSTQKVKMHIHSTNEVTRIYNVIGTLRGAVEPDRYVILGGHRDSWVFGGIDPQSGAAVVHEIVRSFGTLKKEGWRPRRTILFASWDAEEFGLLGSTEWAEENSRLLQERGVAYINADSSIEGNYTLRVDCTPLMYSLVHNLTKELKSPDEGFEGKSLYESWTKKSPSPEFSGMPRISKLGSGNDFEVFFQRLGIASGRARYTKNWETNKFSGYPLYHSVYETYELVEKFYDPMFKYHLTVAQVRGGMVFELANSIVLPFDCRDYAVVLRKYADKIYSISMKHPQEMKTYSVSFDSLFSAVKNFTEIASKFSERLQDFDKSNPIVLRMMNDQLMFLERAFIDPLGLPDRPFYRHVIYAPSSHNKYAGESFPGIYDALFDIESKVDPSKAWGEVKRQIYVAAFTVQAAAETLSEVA
Description: as §1, §2

O=C(O)CC[C@H](NC(=O)N[C@@H](CCCCNC(=O)[C@H](Cc1ccc2ccccc2c1)NC(=O)c1ccc(CNC(=O)[C@H](CCC(=O)O)NC(=O)[C@H](CCC(=O)O)NC(=O)c2ccc([18F])nc2)cc1)C(=O)O)C(=O)O [[^18F]PSMA-1007, reference compound]
Biodistribution, Adrenals (LNCaP xenografts; 1 h after injection): 7.18 ± 2.20 %IA/g
Biodistribution, Blood (LNCaP xenografts; 1 h after injection): 0.41 ± 0.11 %IA/g
Biodistribution, Femur (LNCaP xenografts; 1 h after injection): 0.94 ± 0.13 %IA/g
Biodistribution, Heart (LNCaP xenografts; 1 h after injection): 1.25 ± 0.29 %IA/g
Biodistribution, Intestine (LNCaP xenografts; 1 h after injection): 1.04 ± 0.33 %IA/g
Biodistribution, Kidneys (LNCaP xenografts; 1 h after injection): 100 ± 17 %IA/g
Biodistribution, Liver (LNCaP xenografts; 1 h after injection): 0.93 ± 0.26 %IA/g
Biodistribution, Lung (LNCaP xenografts; 1 h after injection): 2.08 ± 0.24 %IA/g
Biodistribution, Muscles (LNCaP xenografts; 1 h after injection): 0.53 ± 0.09 %IA/g
Biodistribution, Pancreas (LNCaP xenografts; 1 h after injection): 1.32 ± 0.58 %IA/g
Biodistribution, Salivary glands (LNCaP xenografts; 1 h after injection): 2.54 ± 0.72 %IA/g
Biodistribution, Spleen (LNCaP xenografts; 1 h after injection): 11.0 ± 1.1 %IA/g
Biodistribution, Stomach (LNCaP xenografts; 1 h after injection): 0.75 ± 0.15 %IA/g
Biodistribution, Tumor (tumor uptake) (LNCaP xenografts; 1 h after injection): 9.70 ± 2.57 %IA/g
Tumor-to-Adrenals ratio (LNCaP xenografts; 1 h after injection): 1.45 ± 0.55
Tumor-to-Blood ratio (LNCaP xenografts; 1 h after injection): 25.8 ± 11.5
Tumor-to-Intestine ratio (LNCaP xenografts; 1 h after injection): 10.3 ± 4.8
Tumor-to-Kidneys ratio (LNCaP xenografts; 1 h after injection): 0.10 ± 0.03
Tumor-to-Liver ratio (LNCaP xenografts; 1 h after injection): 11.3 ± 4.5
Tumor-to-Muscles ratio (LNCaP xenografts; 1 h after injection): 19.2 ± 6.5
Tumor-to-Salivary glands ratio (LNCaP xenografts; 1 h after injection): 4.12 ± 1.60
Tumor-to-Spleen ratio (LNCaP xenografts; 1 h after injection): 0.89 ± 0.20
Biodistribution, Adrenals (LNCaP xenografts; 4 h after injection): 8.03 ± 2.66 %IA/g
Biodistribution, Blood (LNCaP xenografts; 4 h after injection): 0.17 ± 0.04 %IA/g
Biodistribution, Femur (LNCaP xenografts; 4 h after injection): 0.62 ± 0.11 %IA/g
Biodistribution, Heart (LNCaP xenografts; 4 h after injection): 0.53 ± 0.23 %IA/g
Biodistribution, Intestine (LNCaP xenografts; 4 h after injection): 0.43 ± 0.22 %IA/g
Biodistribution, Kidneys (LNCaP xenografts; 4 h after injection): 132 ± 9 %IA/g
Biodistribution, Liver (LNCaP xenografts; 4 h after injection): 0.32 ± 0.16 %IA/g
Biodistribution, Lung (LNCaP xenografts; 4 h after injection): 1.61 ± 0.58 %IA/g
Biodistribution, Muscles (LNCaP xenografts; 4 h after injection): 0.27 ± 0.11 %IA/g
Biodistribution, Pancreas (LNCaP xenografts; 4 h after injection): 0.80 ± 0.32 %IA/g
Biodistribution, Salivary glands (LNCaP xenografts; 4 h after injection): 1.62 ± 0.43 %IA/g
Biodistribution, Spleen (LNCaP xenografts; 4 h after injection): 8.33 ± 2.11 %IA/g
Biodistribution, Stomach (LNCaP xenografts; 4 h after injection): 0.47 ± 0.16 %IA/g
Biodistribution, Tumor (tumor uptake) (LNCaP xenografts; 4 h after injection): 6.28 ± 2.19 %IA/g
Tumor-to-Adrenals ratio (LNCaP xenografts; 4 h after injection): 0.78 ± 0.11
Tumor-to-Blood ratio (LNCaP xenografts; 4 h after injection): 42.7 ± 16.4
Tumor-to-Intestine ratio (LNCaP xenografts; 4 h after injection): 12.4 ± 4.4
Tumor-to-Kidneys ratio (LNCaP xenografts; 4 h after injection): 0.04 ± 0.01
Tumor-to-Liver ratio (LNCaP xenografts; 4 h after injection): 18.4 ± 8.5
Tumor-to-Muscles ratio (LNCaP xenografts; 4 h after injection): 20.1 ± 2.5
Tumor-to-Salivary glands ratio (LNCaP xenografts; 4 h after injection): 3.63 ± 0.40
Tumor-to-Spleen ratio (LNCaP xenografts; 4 h after injection): 0.71 ± 0.12
logDpH7.4 [1]: −3.02 ± 0.11

O=C([O-])CN1CCN(CC(=O)[O-])CCN(C(CCC(=O)N[C@H](Cc2ccc(O)c(I)c2)C(=O)N[C@H](Cc2ccccc2)C(=O)N[C@H](CCCCNC(=O)CCCCCCC(=O)NCCCC[C@H](NC(=O)N[C@@H](CCC(=O)O)C(=O)O)C(=O)O)C(=O)O)C(=O)O)CCN(CC(=O)[O-])CC1.[68Ga+3] (some centres unmarked) [[^68Ga]Ga-DOTAGA-PSMA-I&T, reference compound]
Cellular uptake (surface-bound + internalized) (LNCaP cells): 20.6% ± 2.3%

O=C([O-])CN1CCN(CC(=O)[O-])CCN(C(CCC(=O)N[C@H](Cc2ccc(O)c(I)c2)C(=O)N[C@H](Cc2ccccc2)C(=O)N[C@H](CCCCNC(=O)CCCCCCC(=O)NCCCC[C@H](NC(=O)N[C@@H](CCC(=O)O)C(=O)O)C(=O)O)C(=O)O)C(=O)[O-])CC1.[68Ga+3] (some centres unmarked) [[^68Ga]Ga-NODAGA-PSMA-I&T]
Cellular uptake (surface-bound + internalized) (LNCaP cells): 18.1% ± 2.6%

O=C([O-])CN(CCN(CC(=O)[O-])Cc1cc(CCC(=O)NCCCCCC(=O)NCCCC[C@H](NC(=O)N[C@@H](CCC(=O)O)C(=O)O)C(=O)O)ccc1[O-])Cc1cc(CCC(=O)O)ccc1[O-].[68Ga+3].[OH3+] [[^68Ga]Ga-PSMA-11, reference compound]
Biodistribution, Adrenals (LNCaP xenografts; 1 h after injection): 19.2 ± 5.3 %IA/g
Biodistribution, Blood (LNCaP xenografts; 1 h after injection): 0.25 ± 0.07 %IA/g
Biodistribution, Femur (LNCaP xenografts; 1 h after injection): 3.69 ± 1.86 %IA/g
Biodistribution, Heart (LNCaP xenografts; 1 h after injection): 0.32 ± 0.10 %IA/g
Biodistribution, Intestine (LNCaP xenografts; 1 h after injection): 1.52 ± 0.60 %IA/g
Biodistribution, Kidneys (LNCaP xenografts; 1 h after injection): 159 ± 31 %IA/g
Biodistribution, Liver (LNCaP xenografts; 1 h after injection): 0.54 ± 0.27 %IA/g
Biodistribution, Lung (LNCaP xenografts; 1 h after injection): 1.43 ± 0.43 %IA/g
Biodistribution, Muscles (LNCaP xenografts; 1 h after injection): 0.90 ± 0.36 %IA/g
Biodistribution, Pancreas (LNCaP xenografts; 1 h after injection): 0.70 ± 0.12 %IA/g
Biodistribution, Salivary glands (LNCaP xenografts; 1 h after injection): 1.56 ± 0.31 %IA/g
Biodistribution, Spleen (LNCaP xenografts; 1 h after injection): 6.38 ± 1.37 %IA/g
Biodistribution, Stomach (LNCaP xenografts; 1 h after injection): 0.69 ± 0.11 %IA/g
Biodistribution, Tumor (tumor uptake) (LNCaP xenografts; 1 h after injection): 10.2 ± 1.5 %IA/g
Tumor-to-Adrenals ratio (LNCaP xenografts; 1 h after injection): 0.58 ± 0.26
Tumor-to-Blood ratio (LNCaP xenografts; 1 h after injection): 45.3 ± 19.7
Tumor-to-Intestine ratio (LNCaP xenografts; 1 h after injection): 8.66 ± 6.90
Tumor-to-Kidneys ratio (LNCaP xenografts; 1 h after injection): 0.07 ± 0.02
Tumor-to-Liver ratio (LNCaP xenografts; 1 h after injection): 23.5 ± 12.5
Tumor-to-Muscles ratio (LNCaP xenografts; 1 h after injection): 13.6 ± 8.3
Tumor-to-Salivary glands ratio (LNCaP xenografts; 1 h after injection): 6.72 ± 1.51
Tumor-to-Spleen ratio (LNCaP xenografts; 1 h after injection): 1.69 ± 0.58
logDpH7.4 [1]: −3.89 ± 0.19
Cellular uptake (surface-bound + internalized) (LNCaP cells): 25.8% ± 0.5%

O=C([O-])CN1CCN(CC(=O)O)CCN(CC(=O)[O-])CCN(C(CCC(=O)N[C@H](Cc2ccc(O)c(I)c2)C(=O)N[C@H](Cc2ccccc2)C(=O)N[C@H](CCCCNC(=O)CCCCCCC(=O)NCCCC[C@H](NC(=O)N[C@@H](CCC(=O)O)C(=O)O)C(=O)O)C(=O)O)C(=O)O)CC1.[Cu+2] (some centres unmarked) [^natCu-DOTAGA-PSMA-I&T]
IC50 (PSMA): 11.2 ± 2.3 nM

O=C([O-])CN1CCN(CC(=O)[O-])CCN(C(CCC(=O)N[C@H](Cc2ccc(O)c(I)c2)C(=O)N[C@H](Cc2ccccc2)C(=O)N[C@H](CCCCNC(=O)CCCCCCC(=O)NCCCC[C@H](NC(=O)N[C@@H](CCC(=O)O)C(=O)O)C(=O)O)C(=O)O)C(=O)O)CC1.[Cu+2] (some centres unmarked) [^natCu-NODAGA-PSMA-I&T]
IC50 (PSMA): 9.3 ± 1.8 nM

O=C([O-])CN(CCN(CC(=O)[O-])Cc1cc(CCC(=O)NCCCCCC(=O)NCCCC[C@H](NC(=O)N[C@@H](CCC(=O)O)C(=O)O)C(=O)O)ccc1O)Cc1cc(CCC(=O)O)ccc1[O-].[Ga+3] [^natGa-PSMA-11, reference compound]
IC50 (PSMA): 2.4 ± 0.4 nM
